Measured values reported in article PMC12150326 (The Journal of Organic Chemistry, 2025).
Read-outs that look alike come from different tables or passages of the source.

Tests used:
[1] = tested on: colchicine site of bovine brain tubulin; type: binding
Experimental: Inhibition of this fluorescence increase was measured and converted to K d for the test compound as described.

bovine brain tubulin = test: Tubulin polymerization inhibition; type: biochemical; settings: 10 μM tubulin
Experimental: Inhibition of tubulin polymerization was determined as described previously. In brief, 10 μM bovine brain tubulin (PurSolutions, LLC (puresoluble.com)) was incubated under conditions strongly promoting polymerization of tubulin (1 M NaGlutamate, 0.1 M Mes (Morpholinoethanesulfonic acid), 1 mM MgCl2, 0.5 mM GTP, pH 6.9), in the absence or presence of 3.3 or 33 μM test compound, incubated for 30 min at 37 °C, then centrifuged at 100,000g for 8 min, and the top 3/4 of the supernatant removed. Protein concentration was measured, and polymerization was determined as pelletable protein lost from the supernatant.

A549 = test: Cell-growth inhibition (CellTiter); type: cell-based, human; settings: read-out: Cell Growth Inhibition GI50 ± SE
Experimental: (§1) Inhibition of cell growth was determined by using standard procedures. Cell lines were obtained from the NCI anticancer drug screen and maintained in DMEM medium supplemented with 10% fetal bovine serum. Growing cells were exposed to serial dilutions of each compound for 3 days. Cell growth was determined with CellTiter Assay Reagent (Promega), and growth parameters, including inhibition of growth, were measured by using the methods specified by the manufacturer.

M14 [2] = test: Cell-growth inhibition (CellTiter); type: cell-based, human; settings: read-out: Cell Growth Inhibition GI50 ± SE
Experimental: as §1

PC3 = test: Cell-growth inhibition (CellTiter); type: cell-based, human; settings: read-out: Cell Growth Inhibition GI50 ± SE
Experimental: as §1

A549/ATCC = type: cell-based, human
Experimental: (§2) (aR)-6, (aS)-6, (aS)-iso -6, and (aR)-iso -6 were submitted to the 60 Cell Screen panel and evaluated at 5 doses (100 μM, 10 μM, 1 μM, 0.1 μM, and 0.01 μM). […] The complete report from this submission is available at the publisher’s Web site as a separate Supporting Information file. For COMPARE analysis, TGI levels of response for (aR)-DM-MTC (6) and (aS)-iso-DM-MTC were compared to those of several established tubulin inhibitors previously tested in the NCI-60 screen.

BT-549 = type: cell-based, human
Experimental: as §2

CAKI-1 = type: cell-based, human
Experimental: as §2

COLO 205 = type: cell-based, human
Experimental: as §2

EKVX = type: cell-based, human
Experimental: as §2

HCC-2998 = type: cell-based, human
Experimental: as §2

HCT-15 = type: cell-based, human
Experimental: as §2

HS 578T = type: cell-based, human
Experimental: as §2

IGROV1 = type: cell-based, human
Experimental: as §2

M14 [3] = type: cell-based, human
Experimental: as §2

MALME-3M = type: cell-based, human
Experimental: as §2

MDA-MB-435 = type: cell-based, human
Experimental: as §2

NCI-H226 = type: cell-based, human
Experimental: as §2

NCI-H460 = type: cell-based, human
Experimental: as §2

OVCAR-4 = type: cell-based, human
Experimental: as §2

SNB-75 = type: cell-based, human
Experimental: as §2

SR = type: cell-based, human
Experimental: as §2

SW-620 = type: cell-based, human
Experimental: as §2

UACC-62 = type: cell-based, human
Experimental: as §2

## COc1cc(C)c(-c2ccc(OC)c(=O)cc2C)c(OC)c1OC (single isomer, unassigned) [(aR)-6]
[1]
  binding constant fold less potent than 3: 5–30 fold
[1]; tubulin binding constant, 25 °C, read-out: Kd
  Kd: 95 µM
Bovine brain tubulin; 3.3 μM compound
  Polymerization Inhibition (%) 3.3 μM: 0%
Bovine brain tubulin; 33 μM compound
  Polymerization Inhibition (%) 33 μM: 100%
A549; A549, 3 days
  GI50: 2100 ± 100 nM
M14 [2]; M14, 3 days
  GI50: 1100 ± 200 nM
PC3; PC3, 3 days
  GI50: 1500 ± 100 nM
A549/ATCC
  Log10GI50: -5.42 Molar
  Log10LC50: > -4.00 Molar
  Log10TGI: > -4.00 Molar
A549/ATCC; Homo sapiens
  GI50: 3.8 µM
A549/ATCC; listed as (aR)-DM-MTC
  Log10GI50: -5.42 Molar
BT-549
  Log10GI50: -5.69 Molar
  Log10LC50: > -4.00 Molar
  Log10TGI: -5.18 Molar
BT-549; Homo sapiens
  GI50: 2040 nM
BT-549; listed as (aR)-DM-MTC
  Log10GI50: -5.69 Molar
CAKI-1
  Log10GI50: -6.03 Molar
  Log10LC50: > -4.00 Molar
  Log10TGI: > -4.00 Molar
CAKI-1; Homo sapiens
  GI50: 930 nM
CAKI-1; listed as (aR)-DM-MTC
  Log10GI50: -6.03 Molar
COLO 205
  Log10GI50: -5.76 Molar
  Log10LC50: -4.74 Molar
  Log10TGI: -5.35 Molar
COLO 205; Homo sapiens
  GI50: 1740 nM
COLO 205; listed as (aR)-DM-MTC
  Log10GI50: -5.76 Molar
EKVX
  Log10GI50: -5.18 Molar
  Log10LC50: > -4.00 Molar
  Log10TGI: > -4.00 Molar
EKVX; Homo sapiens
  GI50: 6.61 µM
EKVX; listed as (aR)-DM-MTC
  Log10GI50: -5.18 Molar
HCC-2998
  Log10GI50: -5.55 Molar
  Log10LC50: > -4.00 Molar
  Log10TGI: > -4.00 Molar
HCC-2998; Homo sapiens
  GI50: 2820 nM
HCC-2998; listed as (aR)-DM-MTC
  Log10GI50: -5.55 Molar
HCT-15
  Log10GI50: -6.17 Molar
  Log10LC50: > -4.00 Molar
  Log10TGI: > -4.00 Molar
HCT-15; Homo sapiens
  GI50: 680 nM
HCT-15; listed as (aR)-DM-MTC
  Log10GI50: -6.17 Molar
HS 578T
  Log10GI50: -5.81 Molar
  Log10LC50: > -4.00 Molar
HS 578T; Homo sapiens
  GI50: 1550 nM
HS 578T; listed as (aR)-DM-MTC
  Log10GI50: -5.81 Molar
IGROV1
  Log10GI50: -5.37 Molar
  Log10LC50: > -4.00 Molar
  Log10TGI: > -4.00 Molar
IGROV1; Homo sapiens, IGROV-1
  GI50: 4.27 µM
IGROV1; listed as (aR)-DM-MTC
  Log10GI50: -5.37 Molar
M14 [3]
  Log10GI50: -6.07 Molar
  Log10LC50: > -4.00 Molar
  Log10TGI: > -4.00 Molar
M14 [3]; Homo sapiens
  GI50: 850 nM
M14 [3]; listed as (aR)-DM-MTC
  Log10GI50: -6.07 Molar
MALME-3M
  Log10LC50: > -4.00 Molar
  Log10TGI: > -4.00 Molar
MDA-MB-435
  Log10GI50: -6.57 Molar
  Log10LC50: > -4.00 Molar
  Log10TGI: -6.13 Molar
MDA-MB-435; Homo sapiens
  GI50: 270 nM
MDA-MB-435; listed as (aR)-DM-MTC
  Log10GI50: -6.57 Molar
NCI-H226
  Log10GI50: -5.41 Molar
  Log10LC50: > -4.00 Molar
  Log10TGI: > -4.00 Molar
NCI-H226; Homo sapiens
  GI50: 3.89 µM
NCI-H226; listed as (aR)-DM-MTC
  Log10GI50: -5.41 Molar
NCI-H460
  Log10GI50: -5.55 Molar
  Log10LC50: > -4.00 Molar
  Log10TGI: > -4.00 Molar
NCI-H460; Homo sapiens
  GI50: 2820 nM
NCI-H460; listed as (aR)-DM-MTC
  Log10GI50: -5.55 Molar
OVCAR-4
  Log10GI50: -4.35 Molar
  Log10LC50: > -4.00 Molar
  Log10TGI: > -4.00 Molar
OVCAR-4; Homo sapiens
  GI50: 44.7 µM
OVCAR-4; listed as (aR)-DM-MTC
  Log10GI50: -4.35 Molar
SNB-75
  Log10GI50: -6.04 Molar
  Log10LC50: > -4.00 Molar
SNB-75; Homo sapiens
  GI50: 910 nM
SNB-75; listed as (aR)-DM-MTC
  Log10GI50: -6.04 Molar
SR
  Log10GI50: -6.44 Molar
  Log10LC50: > -4.00 Molar
  Log10TGI: > -4.00 Molar
SR; Homo sapiens
  GI50: 360 nM
SR; listed as (aR)-DM-MTC
  Log10GI50: -6.44 Molar
SW-620
  Log10GI50: -5.91 Molar
  Log10LC50: > -4.00 Molar
  Log10TGI: > -4.00 Molar
SW-620; Homo sapiens
  GI50: 1230 nM
SW-620; listed as (aR)-DM-MTC
  Log10GI50: -5.91 Molar
UACC-62
  Log10GI50: -6.03 Molar
  Log10LC50: > -4.00 Molar
  Log10TGI: > -4.00 Molar
UACC-62; Homo sapiens
  GI50: 930 nM
UACC-62; listed as (aR)-DM-MTC
  Log10GI50: -6.03 Molar

## COc1cc2c(c(OC)c1OC)-c1ccc(OC)c(=O)cc1[C@@H](NC(C)=O)CC2 [Colchicine, (−)-Colchicine]
A549; Homo sapiens, A549, 72 h
  GI50: 40 nM
M14 [2]; Homo sapiens, M14, 72 h
  GI50: 10 ± 1 nM
PC3; Homo sapiens, PC-3, 72 h
  GI50: 20 ± 5 nM
